Laboratory results: ChEMBL document CHEMBL1201862, “PubChem BioAssay data set” (2004)
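Test compounds were applied to cells in 96-well plates for 48 hours at 5 doses. Abbreviation: GI50, concentration required for 50% inhibition of growth.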 Active and inactive are the calls of the source. Cut-off read from the data, not from the text of the source: active = GI50 up to about 1.1 µM and inactive = higher.

Key:
Test in all cases: growth of human tumour cells (NCI), 48 h
M14 = system: M14
MOLT-4 = system: MOLT-4
OVCAR-4 = system: OVCAR-4
HCT-116 = system: HCT-116
HCC 2998 = system: HCC 2998
UACC-257 = system: UACC-257
OVCAR-5 = system: OVCAR-5
786-0 = system: 786-0
ACHN = system: ACHN
KM12 = system: KM12
LOX IMVI = system: LOX IMVI
UO-31 = system: UO-31
NCI-H23 = system: NCI-H23
SF-295 = system: SF-295
Malme-3M = system: Malme-3M
SK-MEL-2 = system: SK-MEL-2
NCI-H226 = system: NCI-H226
SK-OV-3 = system: SK-OV-3
HOP-92 = system: HOP-92

Measured: GI50

c1ccc2/c3[nH]/c(c2c1)=N\c1ccc(cc1)-c1nc2cc(ccc2o1)/N=c1/[nH]/c(c2ccccc12)=N/c1ccc2nc(oc2c1)-c1ccc(cc1)\N=3
inactive: M14 > 100 µM | MOLT-4 > 100 µM | OVCAR-4 > 100 µM | HCT-116 > 100 µM | HCC 2998 6.9 µM | UACC-257 > 100 µM | OVCAR-5 > 100 µM | 786-0 > 100 µM | ACHN > 100 µM | KM12 81.1 µM | LOX IMVI > 100 µM | UO-31 > 100 µM | NCI-H23 > 100 µM | SF-295 > 100 µM

O=C(O)/C=C\C(=O)Nc1ccc(S(=O)(=O)c2ccc(NC(=O)/C=C\C(=O)O)cc2)cc1
inactive: M14 > 100 µM | Malme-3M > 100 µM | SK-MEL-2 > 100 µM | MOLT-4 > 100 µM | OVCAR-4 > 100 µM | HCT-116 > 100 µM | UACC-257 > 100 µM | NCI-H226 > 100 µM | OVCAR-5 > 100 µM | 786-0 > 100 µM | ACHN > 100 µM | KM12 > 100 µM | SK-OV-3 > 100 µM | LOX IMVI > 100 µM | UO-31 > 100 µM | HOP-92 > 100 µM | NCI-H23 > 100 µM | SF-295 > 100 µM

O=Cc1c[nH]c2c(=O)[nH]cnc12
inactive: M14 > 100 µM | Malme-3M > 100 µM | SK-MEL-2 > 100 µM | MOLT-4 > 100 µM | HCT-116 > 100 µM | HCC 2998 > 100 µM | UACC-257 > 100 µM | 786-0 > 100 µM | ACHN > 100 µM | KM12 > 100 µM | SK-OV-3 > 100 µM | LOX IMVI > 100 µM | UO-31 > 100 µM | HOP-92 > 100 µM | NCI-H23 > 100 µM | SF-295 > 100 µM

Cn1cc(NC(=O)c2cc(NC(=O)CCCCCCC(=O)Nc3cc(C(=O)Nc4cc(C(=O)NCCC(=N)N)n(C)c4)n(C)c3)cn2C)cc1C(=O)NCCC(=N)N
inactive: M14 16 µM | Malme-3M 2.67 µM | OVCAR-4 36.1 µM | HCT-116 8.53 µM | HCC 2998 10.7 µM | UACC-257 2.2 µM | OVCAR-5 > 100 µM | 786-0 12.9 µM | ACHN 8.85 µM | KM12 2.92 µM | SK-OV-3 > 100 µM | LOX IMVI 5.75 µM | UO-31 39.4 µM | HOP-92 > 100 µM | NCI-H23 3.91 µM | SF-295 25.9 µM

Cc1ccc(C(=O)O)cc1NC(=O)c1cc(/C=C/c2ccccc2)[nH]c(=S)n1
inactive: M14 > 100 µM | Malme-3M > 100 µM | MOLT-4 > 100 µM | OVCAR-4 > 100 µM | HCT-116 > 37.8 µM | HCC 2998 > 100 µM | UACC-257 > 100 µM | NCI-H226 > 100 µM | OVCAR-5 > 100 µM | 786-0 > 64.3 µM | ACHN > 89.9 µM | KM12 > 100 µM | SK-OV-3 > 100 µM | LOX IMVI > 100 µM | UO-31 > 100 µM | HOP-92 > 100 µM | NCI-H23 > 100 µM | SF-295 > 100 µM

O=C(N/C=C/C=C/Sc1ccccc1)OCc1ccccc1
inactive: M14 18.5 µM | SK-MEL-2 > 10 µM | MOLT-4 15.4 µM | OVCAR-4 21.7 µM | HCT-116 18.2 µM | HCC 2998 20.1 µM | UACC-257 18.7 µM | NCI-H226 19.9 µM | OVCAR-5 14.3 µM | 786-0 16.9 µM | ACHN 27.2 µM | KM12 17.5 µM | SK-OV-3 33.8 µM | LOX IMVI 17.5 µM | UO-31 17.5 µM | HOP-92 23.2 µM | NCI-H23 22.7 µM | SF-295 19.6 µM

COCN1C(=O)C2CC(/C=C/C(N)=O)=CN2C(=O)c2ccccc21 (stereo not given)
inactive: M14 > 100 µM | MOLT-4 > 100 µM | OVCAR-4 > 100 µM | HCT-116 > 100 µM | HCC 2998 > 100 µM | NCI-H226 > 100 µM | 786-0 > 100 µM | KM12 > 100 µM | SK-OV-3 > 100 µM | LOX IMVI > 100 µM | NCI-H23 > 100 µM | SF-295 > 100 µM

Cn1c(=O)c2c(nc(-n3nc(-c4ccc(Cl)cc4)cc3N)n2C)n(C)c1=O
inactive: M14 > 100 µM | Malme-3M 7.13 µM | SK-MEL-2 > 100 µM | MOLT-4 11.6 µM | OVCAR-4 5.6 µM | HCT-116 19.1 µM | HCC 2998 > 100 µM | UACC-257 > 100 µM | NCI-H226 55.2 µM | OVCAR-5 79.8 µM | 786-0 6.9 µM | ACHN > 100 µM | KM12 > 100 µM | SK-OV-3 18.1 µM | UO-31 > 100 µM | HOP-92 > 100 µM | NCI-H23 > 100 µM | SF-295 25.5 µM

N#CC(NNC(=O)c1ccccc1O)c1cccc(O)c1 (stereo not given)
inactive: M14 6.35 µM | Malme-3M 12.9 µM | SK-MEL-2 5.7 µM | MOLT-4 58.2 µM | OVCAR-4 3.36 µM | HCT-116 3.26 µM | UACC-257 10.1 µM | NCI-H226 11.5 µM | OVCAR-5 54.7 µM | 786-0 6.53 µM | ACHN 2.31 µM | KM12 4.52 µM | SK-OV-3 3.93 µM | LOX IMVI 4.94 µM | UO-31 1.55 µM | HOP-92 4.25 µM | NCI-H23 2.9 µM | SF-295 3.67 µM

c1ccc2c3c([nH]c2c1)[C@H]1C2CCCCN2CN1CC3 (stereo not given in full)
inactive: M14 > 100 µM | Malme-3M 83.6 µM | SK-MEL-2 > 100 µM | MOLT-4 > 100 µM | OVCAR-4 > 100 µM | HCT-116 > 100 µM | HCC 2998 > 100 µM | UACC-257 > 100 µM | OVCAR-5 > 100 µM | 786-0 > 100 µM | ACHN > 100 µM | SK-OV-3 > 100 µM | UO-31 > 100 µM | HOP-92 > 100 µM | NCI-H23 > 100 µM | SF-295 > 100 µM

CCOC(=O)Nc1[nH]cc(-c2ccccc2)c1C#N
inactive: M14 > 100 µM | Malme-3M > 100 µM | SK-MEL-2 > 100 µM | MOLT-4 > 100 µM | OVCAR-4 > 100 µM | HCT-116 > 100 µM | NCI-H226 > 100 µM | OVCAR-5 > 100 µM | 786-0 > 100 µM | ACHN > 100 µM | KM12 > 100 µM | SK-OV-3 > 100 µM | LOX IMVI > 100 µM | UO-31 > 100 µM | NCI-H23 > 100 µM | SF-295 > 100 µM

COc1ccc(-c2cc(C(=O)Nc3ccc(C)c(C)c3)nc(NC#N)n2)cc1
inactive: M14 > 100 µM | Malme-3M > 100 µM | SK-MEL-2 > 100 µM | MOLT-4 > 100 µM | OVCAR-4 > 100 µM | HCT-116 > 100 µM | UACC-257 > 100 µM | OVCAR-5 > 100 µM | 786-0 > 100 µM | ACHN > 100 µM | KM12 > 100 µM | SK-OV-3 > 100 µM | LOX IMVI > 100 µM | UO-31 > 100 µM | NCI-H23 > 100 µM

CC1(C)OCC(C2OC(OC(=O)c3ccc(C(F)(F)F)cc3)C3OC(C)(C)OC23)O1 (stereo not given)
inactive: M14 > 77.4 µM | Malme-3M > 77.4 µM | SK-MEL-2 > 77.4 µM | MOLT-4 38 µM | OVCAR-4 > 77.4 µM | HCT-116 > 77.4 µM | HCC 2998 > 77.4 µM | UACC-257 > 77.4 µM | NCI-H226 > 77.4 µM | OVCAR-5 > 77.4 µM | 786-0 46.5 µM | ACHN > 77.4 µM | KM12 72.3 µM | SK-OV-3 > 77.4 µM | LOX IMVI > 77.4 µM | UO-31 19 µM | NCI-H23 58.3 µM | SF-295 > 77.4 µM

Cc1ccc(S(=O)(=O)C(C#N)c2nc3ccccc3nc2N2CCOCC2)cc1 (stereo not given)
inactive: M14 44.2 µM | Malme-3M 27.5 µM | SK-MEL-2 33.1 µM | MOLT-4 19.2 µM | OVCAR-4 20.5 µM | HCT-116 18.2 µM | HCC 2998 14.1 µM | UACC-257 33.8 µM | NCI-H226 > 100 µM | OVCAR-5 > 100 µM | 786-0 30.2 µM | ACHN 30.3 µM | KM12 18.3 µM | SK-OV-3 61.5 µM | LOX IMVI 16.6 µM | UO-31 32.1 µM | NCI-H23 21.8 µM

Cc1oc2c(C)c3oc(=O)cc(C)c3cc2c1CNC(=O)[C@@H]1OCCOCCOCCOCCOCCOC1C(=O)O (stereo not given in full)
inactive: M14 12.5 µM | Malme-3M > 100 µM | MOLT-4 > 100 µM | OVCAR-4 > 100 µM | HCT-116 > 100 µM | HCC 2998 > 100 µM | UACC-257 > 100 µM | NCI-H226 > 100 µM | OVCAR-5 > 100 µM | 786-0 21.2 µM | ACHN > 100 µM | KM12 > 100 µM | SK-OV-3 > 100 µM | LOX IMVI > 100 µM | UO-31 > 100 µM | HOP-92 > 100 µM | NCI-H23 > 100 µM | SF-295 > 100 µM

N#Cc1cccc(-n2[nH]c(=O)ccc2=O)c1
inactive: M14 > 100 µM | Malme-3M > 100 µM | SK-MEL-2 > 100 µM | MOLT-4 > 100 µM | OVCAR-4 > 100 µM | HCT-116 > 100 µM | HCC 2998 > 100 µM | UACC-257 > 100 µM | NCI-H226 > 100 µM | OVCAR-5 > 100 µM | 786-0 > 100 µM | ACHN > 100 µM | KM12 > 100 µM | UO-31 > 100 µM | HOP-92 > 100 µM | NCI-H23 > 100 µM | SF-295 > 100 µM
